Reference: PMC6798786 (Brain Communications, 2019)
“Also recorded” adds a separate entry of the source. Read-outs that look alike come from different tables or passages of the source.

How the values were obtained:
human 5-HT2AR = human 5-HT2AR (Homo sapiens, UniProt P28223); settings: read-out: 5-HT2AR (nM), Table S3, cited from earlier work
scn1lab mutant zebrafish [1] = assay: local field potential (LFP) electrophysiology, electrographic seizure events; assay type: in vivo, Danio rerio; settings: for effect on electrographic seizure activity (LFP): 100 µM, 10 min recording epoch
Experimental: Using a glass micro-electrode positioned under an upright microscope, local field potential (LFP) recordings were obtained from forebrain or optic tectum structures, as described ([Baraban et al., 2005]). Agarose-embedded LFP recording sessions (10 min in duration) were obtained using Axoclamp software (Molecular Devices; Sunnyvale, CA, USA) and sampled at 1 kHz. Epileptiform events were identified post hoc. These were classified as multi-spike or poly-spike upward or downward membrane deflections greater than 3× baseline noise level and 150–250 ms in duration (interictal-like) or greater than 5× baseline noise, multi-spike and >500 ms in duration (ictal-like); both events were counted using threshold detection settings in Clampfit (Molecular Devices; Sunnyvale, CA, USA). Agarose-embedded larvae were continuously monitored for blood flow and heart rate using an Axiocam digital camera at video frame rate.
Monitoring electrographic brain activity to confirm seizure suppression is an essential assay to eliminate false positives from behavioural testing ([Griffin et al., 2018]). By placing a micro-electrode into a visually identified brain region of an agar-immobilized zebrafish larval, stable LFP recordings can be monitored for several hours ([Baraban, 2013]). At 5 days post-fertilization, LFP recordings of scn1Lab zebrafish larvae show an average of 250 abnormal electrographic seizure events during a 10 min recording epoch.

scn1lab mutant zebrafish [2] = assay: locomotion (mean swim velocity) seizure-like behaviour assay in scn1lab mutant zebrafish larvae; assay type: in vivo, Danio rerio; settings: for effect on seizure-like swim behaviour, commercially available compounds: three concentrations; for effect on seizure-like swim behaviour, commercially available compounds / effect on seizure-like swim behaviour, retest of independently synthesized compound: 30 and 90 min exposure; for effect on seizure-like swim behaviour, initial library screen: 100 µM or 250 µM, UCSF-synthesized compound; for effect on seizure-like swim behaviour, retest of independently synthesized compound: 10, 50, 100 and 250 µM; for change in vivo at 100 µM / change in vivo at 250 µM: Danio rerio
Experimental: (§1) For locomotion studies, zebrafish larvae (5 days post-fertilization) were placed into a single well of a clear flat-bottomed 96-well microplate containing embryo media. Sex determination is not possible at this stage of development. All drug screening experiments were conducted in an unbiased manner by investigators blinded to the test compounds and all files coded for post hoc analysis. The 96-well plate containing larvae was then placed inside a DanioVision box where they were allowed to acclimate (20 min; room temperature). EthoVision XT software (DanioVision, Noldus Information Technology) was used to obtain locomotion plots (10 min in duration). Seizure scoring was performed, as described ([Baraban et al., 2005]). All locomotion plots were analysed for distance travelled (in millimetres) and mean velocity (in millimetres per second). After 90 min of drug exposure larvae were examined for toxic side-effects. Compounds that decreased or stopped the larva heartbeat, or reduced or eliminated the escape response when touched, were considered toxic.
For behaviour analysis, the threshold for a change in mean swim velocity ≥40% is considered significant (>1.5× SD of 250 control treated scn1lab). Unless otherwise indicated, all data in this manuscript are presented as the mean ± standard error of the mean. […] Statistically significant differences are indicated with asterisks (*P < 0.05; **P < 0.01; ***P < 0.001). […]

human 5-HT2CR = molecular target: T1, human 5-HT2CR (Homo sapiens, UniProt P28335)
T1 sequence (P28335 33-458): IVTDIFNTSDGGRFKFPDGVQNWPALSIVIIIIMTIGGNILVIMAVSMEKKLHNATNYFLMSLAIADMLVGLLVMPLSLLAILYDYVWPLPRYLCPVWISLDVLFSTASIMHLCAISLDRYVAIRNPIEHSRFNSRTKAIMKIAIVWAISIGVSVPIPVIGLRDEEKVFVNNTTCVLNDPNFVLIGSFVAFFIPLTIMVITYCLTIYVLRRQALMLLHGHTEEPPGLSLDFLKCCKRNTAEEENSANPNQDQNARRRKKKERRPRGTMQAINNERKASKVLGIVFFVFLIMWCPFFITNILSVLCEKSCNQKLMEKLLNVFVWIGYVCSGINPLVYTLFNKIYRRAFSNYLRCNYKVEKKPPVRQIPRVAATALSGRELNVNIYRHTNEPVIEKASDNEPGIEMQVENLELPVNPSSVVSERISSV

human 5-HT2BR [3] = molecular target: T2, human 5-HT2BR (Homo sapiens, UniProt P41595); settings: commercially available compounds known to bind 5-HT2BR; ref Roth et al., 2000; read-out: 5-HT2BR (nM), Table S3; cited from earlier work
T2 sequence (P41595 whole entry): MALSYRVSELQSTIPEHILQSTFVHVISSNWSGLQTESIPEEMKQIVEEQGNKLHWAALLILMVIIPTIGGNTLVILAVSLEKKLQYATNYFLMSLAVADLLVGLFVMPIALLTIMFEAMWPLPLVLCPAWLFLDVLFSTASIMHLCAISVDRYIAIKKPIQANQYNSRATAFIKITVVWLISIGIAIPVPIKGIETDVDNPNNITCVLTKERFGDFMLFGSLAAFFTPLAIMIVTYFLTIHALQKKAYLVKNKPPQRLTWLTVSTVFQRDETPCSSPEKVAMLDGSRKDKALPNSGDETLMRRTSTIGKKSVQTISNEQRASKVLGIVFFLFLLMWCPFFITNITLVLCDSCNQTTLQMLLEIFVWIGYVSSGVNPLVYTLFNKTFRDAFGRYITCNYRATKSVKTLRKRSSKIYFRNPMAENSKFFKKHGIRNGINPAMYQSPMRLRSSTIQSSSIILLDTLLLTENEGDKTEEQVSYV

human H1 = human H1 (Homo sapiens, UniProt P35367); assay: radioligand binding (NIMH PDSP)
human H1, sequence (P35367 whole entry): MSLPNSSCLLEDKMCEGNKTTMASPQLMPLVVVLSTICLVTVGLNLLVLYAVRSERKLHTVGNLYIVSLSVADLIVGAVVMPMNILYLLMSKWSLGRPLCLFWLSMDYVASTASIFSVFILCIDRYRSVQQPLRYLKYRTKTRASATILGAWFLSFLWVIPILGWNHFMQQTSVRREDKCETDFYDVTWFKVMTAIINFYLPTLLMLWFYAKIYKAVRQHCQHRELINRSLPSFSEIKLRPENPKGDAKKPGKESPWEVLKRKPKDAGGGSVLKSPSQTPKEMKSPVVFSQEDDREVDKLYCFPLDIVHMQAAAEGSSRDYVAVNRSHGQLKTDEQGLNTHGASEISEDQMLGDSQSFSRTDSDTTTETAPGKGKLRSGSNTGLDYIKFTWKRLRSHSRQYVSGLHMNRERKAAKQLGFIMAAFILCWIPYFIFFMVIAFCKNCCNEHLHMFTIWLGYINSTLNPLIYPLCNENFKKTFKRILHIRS
Experimental: (§2) All in vitro binding assay and Ki data studies were performed by the US National Institute of Mental Health Psychoactive Drug Screening Program (NIMH PDSP). For these studies, drugs were screened against recombinant, stably expressed human 5-HT2AR, 5-HT2BR, 5-HT2CR and H1, as described at https://pdspdb.unc.edu/pdspWeb/ ([Besnard et al., 2012]).

human 5-HT2BR [4] = molecular target: T2, human 5-HT2BR; assay: radioligand binding (NIMH PDSP)
Experimental: as §2

human 5-HT2R = assay: radioligand binding (NIMH PDSP), any 5-HT2R subtype; settings: 5-HT2AR, 5-HT2BR, 5-HT2CR
Experimental: as §2
Additionally, 5-HT2R modulating compounds exert antiepileptic activity in both preclinical ([Sourbron et al., 2016]; [Griffin et al., 2017]) and clinical studies ([Griffin et al., 2017]; [Schoonjans et al., 2017]; [Kauppila et al., 2018]). […] […].

[5] = test system: scn1lab mutant zebrafish larvae; assay: toxicity check of larvae after 90 min drug exposure (heartbeat, escape response); assay type: in vivo, Danio rerio; settings: 90 min exposure
Experimental: as §1, with “Seizure scoring was performed, as described ([Baraban et al., 2005]).” left out

[6] = commercially available compounds known to bind 5-HT2BR; ref Roth et al., 2000; read-out: 5-HT2CR (nM), Table S3; cited from earlier work
[7] = commercially available compounds known to bind 5-HT2BR, ref Roth et al., 2000
[8] = read-out: % change in velocity, individual larva 1 (heat map)
[9] = read-out: % change in velocity, individual larva 2 (heat map)
[10] = read-out: % change in velocity, individual larva 3 (heat map)
[11] = read-out: % change in velocity, individual larva 4 (heat map)
[12] = read-out: % change in velocity, individual larva 5 (heat map)
[13] = read-out: % change in velocity, individual larva 6 (heat map)
[14] = read-out: mean velocity change from six fish, Trial 1
[15] = read-out: mean velocity change from six fish, Trial 2
[16] = read-out: 5-HT2CR (nM), Table S3; commercially available compounds known to bind 5-HT2BR; ref Roth et al., 2000; cited from earlier work

human 5-HT2AR, sequence (P28223 whole entry): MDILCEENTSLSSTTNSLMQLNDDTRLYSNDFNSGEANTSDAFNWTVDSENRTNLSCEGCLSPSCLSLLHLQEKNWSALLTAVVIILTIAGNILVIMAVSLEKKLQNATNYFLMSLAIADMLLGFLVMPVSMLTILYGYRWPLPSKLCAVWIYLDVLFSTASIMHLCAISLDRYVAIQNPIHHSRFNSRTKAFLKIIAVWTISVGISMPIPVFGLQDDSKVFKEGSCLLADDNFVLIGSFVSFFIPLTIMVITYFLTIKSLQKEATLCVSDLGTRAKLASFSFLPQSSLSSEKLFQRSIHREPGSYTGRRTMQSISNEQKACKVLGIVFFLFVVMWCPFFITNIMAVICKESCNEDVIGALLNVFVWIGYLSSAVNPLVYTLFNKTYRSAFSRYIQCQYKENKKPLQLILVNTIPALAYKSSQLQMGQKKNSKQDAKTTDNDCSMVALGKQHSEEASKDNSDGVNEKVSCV

Compound | effect on seizure-like swim behaviour, commercially available compounds (scn1lab mutant zebrafish [2]) | Ki (human 5-HT2CR; [6]) | Ki (human 5-HT2BR [3]) | Ki (human 5-HT2AR; [7]) | change in vivo at 100 µM (scn1lab mutant zebrafish [2]; [8]) | change in vivo at 250 µM (scn1lab mutant zebrafish [2]; [8]) | change in vivo at 100 µM (scn1lab mutant zebrafish [2]; [9]) | change in vivo at 250 µM (scn1lab mutant zebrafish [2]; [9]) | change in vivo at 100 µM (scn1lab mutant zebrafish [2]; [10]) | change in vivo at 250 µM (scn1lab mutant zebrafish [2]; [10]) | change in vivo at 100 µM (scn1lab mutant zebrafish [2]; [11]) | change in vivo at 250 µM (scn1lab mutant zebrafish [2]; [11]) | change in vivo at 100 µM (scn1lab mutant zebrafish [2]; [12]) | change in vivo at 250 µM (scn1lab mutant zebrafish [2]; [12]) | change in vivo at 100 µM (scn1lab mutant zebrafish [2]; [13]) | change in vivo at 250 µM (scn1lab mutant zebrafish [2]; [13]) | change in vivo at 100 µM (scn1lab mutant zebrafish [2]; [14]) | change in vivo at 250 µM (scn1lab mutant zebrafish [2]; [14]) | change in vivo at 100 µM (scn1lab mutant zebrafish [2]; [15]) | change in vivo at 250 µM (scn1lab mutant zebrafish [2]; [15]) | further results
CC(N)Cc1cccc(C(F)(F)F)c1.Cl (single isomer, unassigned; (+)) [norfenfluramine, (+)-Norfenfluramine hydrochloride, reference compound] | suppressed convulsive swim behaviours in a concentration-dependent manner; also recorded: restore the swimming behaviour or scn1lab mutant larvae to wild-type levels | 306 nM | 18 nM | – | – | – | – | – | – | – | – | – | – | – | – | – | – | – | – | – | Ki (human 5-HT2AR): 194 nM; larvae with reduced spontaneous seizure events (LFP) (scn1lab mutant zebrafish [1]; n = 8): 5 out of 8
Clc1cccc(COc2cncc(N3CCNCC3)n2)c1 [CP-809,101] | biphasic response | 64 nM | 6 nM | 1.6 nM | – | – | – | – | – | – | – | – | – | – | – | – | – | – | – | – | –
c1ccc2c(c1)nc(CN1CCCC1)n2CC1CCCCC1 [Compound 4] | – | – | – | – | -85.7% | -93.5% | -30.6% | -100% | -85.6% | -100% | -68.3% | -67.4% | -79.4% | -83.7% | 146% | -100% | -41.7% | -93.4% | -44.8% | -100% | effect on electrographic seizure activity (LFP) (scn1lab mutant zebrafish [1]): significant suppression of electrographic seizure activity; Ki (human H1): 153 nM; Ki (human 5-HT2BR [4]): 612 nM; effect on seizure-like swim behaviour, initial library screen (scn1lab mutant zebrafish [2]): effective in suppressing; effect on seizure-like swim behaviour, retest of independently synthesized compound (scn1lab mutant zebrafish [2]): reduced the high-velocity seizure-like swim behaviour
FC(F)(F)c1ccc(Cn2c(CN3CCCC3)nc3ccccc32)cc1 [Compound 6] | – | – | – | – | -34.5% | -100% | 38.1% | -91.9% | -51.3% | -100% | 10% | -100% | -75.4% | -79.3% | -79.2% | -92.7% | -40% | -94.7% | -76.2% | -90.5% | effect on electrographic seizure activity (LFP) (scn1lab mutant zebrafish [1]): significant suppression of electrographic seizure activity; Ki (human H1; read-out: Ki H1): 16 nM; Ki (human 5-HT2BR [4]; read-out: Ki 5-HT2BR): 285 nM; effect on seizure-like swim behaviour, initial library screen (scn1lab mutant zebrafish [2]): effective in suppressing; effect on seizure-like swim behaviour, retest of independently synthesized compound (scn1lab mutant zebrafish [2]): reduced the high-velocity seizure-like swim behaviour
c1ccc2c(c1)nc(CN1CCCC1)n2CC1CCCC1 [Compound 20] | – | – | – | – | 17.3% | -62.7% | -4.1% | -80.4% | -27.1% | -65.9% | -14.1% | -100% | -25.2% | -60.9% | -48.1% | -9.7% | -15.6% | -66.1% | -15.6% | -66.1% | effect on electrographic seizure activity (LFP) (scn1lab mutant zebrafish [1]): significant suppression of electrographic seizure activity; Ki (human H1; read-out: Ki H1): 161 nM; Ki (human 5-HT2BR [4]; read-out: Ki 5-HT2BR): 772 nM; effect on seizure-like swim behaviour, initial library screen (scn1lab mutant zebrafish [2]): effective in suppressing; effect on seizure-like swim behaviour, retest of independently synthesized compound (scn1lab mutant zebrafish [2]): reduced the high-velocity seizure-like swim behaviour
c1cn(CC2CCCCC2)c(CN2CCCC2)n1 [Compound 21] | – | – | – | – | 17.5% | 52.2% | -5.2% | -11.5% | 11.1% | 80.9% | 8.5% | -44.9% | 13.2% | 37.8% | 24% | -14.2% | 12.5% | 6.5% | 12.5% | 6.5% | binding to any human 5-HT2R (human 5-HT2R): no significant binding
C[C@H](N)Cn1ccc2cc(F)c(Cl)cc21 [Ro 60-0175] | borderline effective | 9.1 nM | 4.3 nM | – | – | – | – | – | – | – | – | – | – | – | – | – | – | – | – | – | Ki (human 5-HT2AR): 37.2 nM
Br.CN(C)C1CCc2cc(O)c(O)cc2C1 (centres unmarked) [TL-99] | failed to elicit any behavioural effect | 2290 nM | 2040 nM | 2340 nM | – | – | – | – | – | – | – | – | – | – | – | – | – | – | – | – | –
C=CCN1C[C@H](C(=O)N(CCCN(C)C)C(=O)NCC)C[C@@H]2c3cccc4[nH]cc(c34)C[C@H]21 [cabergoline, Cabergoline] | – | – | – | 6.17 nM | – | – | – | – | – | – | – | – | – | – | – | – | – | – | – | – | effect on convulsive swim behaviour at 250 µM (scn1lab mutant zebrafish [2]; 250 µM): significantly reduced convulsive swim behaviour; Ki (human 5-HT2CR; [16]): 692 nM
c1cnc(N2CCN(Cc3ccc4c(c3)OCO4)CC2)nc1 [piribedil, Piribedil, reference compound] | – | – | – | > 10000 nM | – | – | – | – | – | – | – | – | – | – | – | – | – | – | – | – | toxicity at 100 µM ([5]; 100 µM): toxicity; toxicity at 250 µM ([5]; 250 µM): toxicity; Ki (human 5-HT2CR; [16]): > 10000 nM
